These results are taken from US9296732B2, “Substituted benzamides and their uses” (The Board of Trustees of the Leland Stanford Junior …, priority 2012, dated 2016).

The compound `Cc1ccc(S(=O)(=O)Cc2nc(-c3ccc(C(=O)Nc4cccnc4)cc3)oc2C)cc1` [Example 1, 4-(5-Methyl-4-{[(4-methylphenyl)sulfonyl]methyl}-1,3-oxazol-2-yl)-N-(3-pyridinyl)benzamide] showed a melting point of 248 to 250 °C. `Cc1ccc(S(=O)(=O)Cc2nc(-c3ccc(C(=O)Nc4ccncc4)cc3)oc2C)cc1` [Example 2, 4-(5-Methyl-4-{[(4-methylphenyl)sulfonyl]methyl}-1,3-oxazol-2-yl)-N-(4-pyridinyl)benzamide] yielded a melting point of 229 to 231 °C. In the case of `Cc1ccc(S(=O)(=O)Cc2nc(-c3ccc(C(=O)N(C)c4cccnc4)cc3)oc2C)cc1` [Example 3, N-Methyl-4-(5-methyl-4-{[(4-methylphenyl)sulfonyl]methyl}-1,3-oxazol-2-yl)-N-(3-pyridinyl)benzamide], the melting point lay within 195 to 197 °C. Consider `Cc1ccc(S(=O)(=O)Cc2nc(-c3ccc(C(=O)NCc4ccccn4)cc3)oc2C)cc1` [Example 4, 4-(5-Methyl-4-{[(4-methylphenyl)sulfonyl]methyl}-1,3-oxazol-2-yl)-N-(2-pyridinylmethyl)benzamide], for which the melting point lay in the range of 154 to 155 °C. `Cc1ccc(S(=O)(=O)Cc2nc(-c3ccc(C(=O)NCc4ccncc4)cc3)oc2C)cc1` [Example 6, 4-(5-Methyl-4-{[(4-methylphenyl)sulfonyl]methyl}-1,3-oxazol-2-yl)-N-(4-pyridinylmethyl)benzamide] came in with a melting point of 169 to 172 °C.

Regarding `Cc1ccc(S(=O)(=O)Cc2nc(-c3ccc(C(=O)N(C)Cc4cccnc4)cc3)oc2C)cc1` [Example 7, N-Methyl-4-(5-methyl-4-{[(4-methylphenyl)sulfonyl]methyl}-1,3-oxazol-2-yl)-N-(3-pyridinylmethyl)benzamide], the melting point lay within 77 to 80 °C. Compound `Cc1ccc(S(=O)(=O)Cc2nc(-c3ccc(C(=O)NCCc4cccnc4)cc3)oc2C)cc1` [Example 8, 4-(5-Methyl-4-{[(4-methylphenyl)sulfonyl]methyl}-1,3-oxazol-2-yl)-N-[2-(3-pyridinyl)ethyl]benzamide] returned a melting point of 207 to 208 °C.

`Cc1ccc(S(=O)(=O)Cc2nc(-c3ccc(C(=O)NCc4cnccn4)cc3)oc2C)cc1` [Example 9, 4-(5-Methyl-4-{[(4-methylphenyl)sulfonyl]methyl}-1,3-oxazol-2-yl)-N-(2-pyrazinylmethyl)benzamide] yielded a melting point of 204 to 206 °C.

As for `Cc1ccc(S(=O)(=O)Cc2nc(-c3ccc(C(=O)NCc4nccn4C)cc3)oc2C)cc1` [Example 10, N-[(1-Methyl-1H-imidazol-2-yl)methyl]-4-(5-methyl-4-{[(4-methylphenyl)sulfonyl]methyl}-1,3-oxazol-2-yl)benzamide], the melting point is 190 to 192 °C. With `Cc1ccc(S(=O)(=O)Cc2nc(-c3ccc(C(=O)NCc4cncn4C)cc3)oc2C)cc1` [Example 11, N-[(1-Methyl-1H-imidazol-5-yl)methyl]-4-(5-methyl-4-{[(4-methylphenyl)sulfonyl]methyl}-1,3-oxazol-2-yl)benzamide] the figure was 240 to 242 °C; with `Cc1oc(-c2ccc(C(=O)NCc3cccnc3)cc2)nc1CS(=O)(=O)c1ccccc1` [Example 12, 4-[5-Methyl-4-[(phenylsulfonyl)methyl]-1,3-oxazol-2-yl]-N-(3-pyridinylmethyl)benzamide], 196 to 198 °C; with `Cc1oc(-c2ccc(C(=O)NCc3cccnc3)cc2)nc1CS(=O)(=O)c1ccc(Cl)cc1` [Example 13, 4-(4-{[(4-Chlorophenyl)sulfonyl]methyl}-5-methyl-1,3-oxazol-2-yl)-N-(3-pyridinylmethyl)benzamide], 220 to 222 °C. With `Cc1oc(-c2ccc(C(=O)NCc3cccnc3)cc2)nc1CS(=O)(=O)c1ccc(C(C)(C)C)cc1` [Example 14, 4-(4-{[(4-tert-Butylphenyl)sulfonyl]methyl}-5-methyl-1,3-oxazol-2-yl)-N-(3-pyridinylmethyl)benzamide] the figure was 177 to 180 °C. With `Cc1cc(C)cc(S(=O)(=O)Cc2nc(-c3ccc(C(=O)NCc4cccnc4)cc3)oc2C)c1` [Example 15, 4-(4-{[(3,5-Dimethylphenyl)sulfonyl]methyl}-5-methyl-1,3-oxazol-2-yl)-N-(3-pyridinylmethyl)benzamide] the figure was 188 to 190 °C; with `Cc1oc(-c2ccc(C(=O)NCc3cccnc3)cc2)nc1CS(=O)(=O)c1ccc(Br)cc1` [Example 16, 4-(4-{[(4-Bromophenyl)sulfonyl]methyl}-5-methyl-1,3-oxazol-2-yl)-N-(3-pyridinylmethyl)benzamide], 224 to 227 °C. `Cc1cccc(S(=O)(=O)Cc2nc(-c3ccc(C(=O)NCc4cccnc4)cc3)oc2C)c1` [Example 17, 4-(5-Methyl-4-{[(3-methylphenyl)sulfonyl]methyl}-1,3-oxazol-2-yl)-N-(3-pyridinylmethyl)benzamide] gave a melting point of 179 to 181 °C.

The compound `COc1ccc(S(=O)(=O)Cc2nc(-c3ccc(C(=O)NCc4cccnc4)cc3)oc2C)cc1` [Example 18, 4-(4-{[(4-Methoxyphenyl)sulfonyl]methyl}-5-methyl-1,3-oxazol-2-yl)-N-(3-pyridinylmethyl)benzamide] returned a melting point of 189 to 191 °C.

Regarding `COc1cccc(S(=O)(=O)Cc2nc(-c3ccc(C(=O)NCc4cccnc4)cc3)oc2C)c1` [Example 19, 4-(5-Methyl-4-{[(3-methoxyphenyl)sulfonyl]methyl}-1,3-oxazol-2-yl)-N-(3-pyridinylmethyl)benzamide], the melting point was in the range of 143 to 145 °C. The compound `COc1ccc(S(=O)(=O)Cc2nc(-c3ccc(C(=O)NCc4cccnc4)cc3)oc2C)cc1OC` [Example 20, 4-(4-{[(3,4-Dimethoxyphenyl)sulfonyl]methyl}-5-methyl-1,3-oxazol-2-yl)-N-(3-pyridinylmethyl)benzamide] returned a melting point of 104 to 108 °C. Compound `Cc1oc(-c2ccc(C(=O)NCc3cccnc3)cc2)nc1CS(=O)(=O)c1ccc(F)cc1` [Example 22, 4-(4-{[(4-Fluorophenyl)sulfonyl]methyl}-5-methyl-1,3-oxazol-2-yl)-N-(3-pyridinylmethyl)benzamide] displayed a melting point of 218 to 220 °C.

`Cc1oc(-c2ccc(C(=O)NCc3cccnc3)cc2)nc1CS(=O)(=O)c1ccc(N2CCN(C)CC2)cc1` [Example 23, 4-[5-Methyl-4-({[4-(4-methyl-1-piperazinyl)phenyl]sulfonyl}methyl)-1,3-oxazol-2-yl]-N-(3-pyridinylmethyl)benzamide]: the melting point lay in the range of 210 to 215 °C. `Cc1oc(-c2ccc(C(=O)NCc3cccnc3)cc2)nc1CS(=O)(=O)c1ccc(N2CCOCC2)cc1` [Example 24, 4-[5-Methyl-4-({[4-(4-morpholinyl)phenyl]sulfonyl}methyl)-1,3-oxazol-2-yl]-N-(3-pyridinylmethyl)benzamide] displayed a melting point of 208 to 210 °C. For `Cc1ccc(S(=O)(=O)Cc2csc(-c3ccc(C(=O)NCc4cccnc4)cc3)n2)cc1` [Example 25, 4-(4-{[(4-Methylphenyl)sulfonyl]methyl}-1,3-thiazol-2-yl)-N-(3-pyridinylmethyl)benzamide], the melting point was 178 to 181 °C. For `Cc1oc(-c2ccc(C(=O)NCc3ccccc3)cc2)nc1CS(=O)(=O)c1ccc(Br)cc1` [Example 27, N-Benzyl-4-(4-{[(4-bromophenyl)sulfonyl]methyl}-5-methyl-1,3-oxazol-2-yl)benzamide], the melting point was 234 to 237 °C.

The melting point is the temperature, or range, at which the solid turns liquid.
